# According to US20250235455A1, “AQUEOUS TICAGRELOR SOLUTIONS, METHOD OF MANUFACTURING AND USES” (HYLORIS DEVELOPMENTS SA, priority 2022, published 2025):
# Marks after values point to notes of the source that are not given here.
# Experiments:
# [1] = Solubility of ticagrelor in HPβCD (appearance on shaking platform); format: physicochemical
# Protocol: In a first example two different types of cyclodextrin were used and compared for the solubilization of ticagrelor. An unbuffered stock solution of HPβCD or SBECD was made in water at the target concentrations of 20 w/w %, 25 w/w %, 30 w/w %, 35 w/w % and 40 w/w %. Ticagrelor was added slowly under vortex. Ticagrelor was used at concentrations of 5, 10 or 14 mg/ml in milli Q water. The ticagrelor-cyclodextrin solutions were left on a shaking platform. No sonification or heat was applied.
# [2] = Diluent tests of 5 mg/ml ticagrelor-cyclodextrin solutions; format: physicochemical; conditions: for Appearance, undiluted: 5 mg/ml; for Appearance in 5% dextrose / Appearance in NaCl 0.9%: diluted to 0.1 mg/ml
# Protocol: 5 mg/ml ticagrelor-cyclodextrin solutions with varying amounts of HPβCD were diluted with normal saline, 5% dextrose solution or Ringer's lactate solution. The stability was screened.
# [3] = HPβCD 20% w/w, ticagrelor 5 mg/ml
# [4] = HPβCD 20% w/w, ticagrelor 10 mg/ml
# [5] = HPβCD 20% w/w, ticagrelor 14 mg/ml
# [6] = HPβCD 25% w/w, ticagrelor 5 mg/ml
# [7] = HPβCD 25% w/w, ticagrelor 10 mg/ml
# [8] = HPβCD 25% w/w, ticagrelor 14 mg/ml
# [9] = HPβCD 30% w/w, ticagrelor 5 mg/ml
# [10] = HPβCD 30% w/w, ticagrelor 10 mg/ml
# [11] = HPβCD 30% w/w, ticagrelor 14 mg/ml
# [12] = HPβCD 35% w/w, ticagrelor 5 mg/ml
# [13] = HPβCD 35% w/w, ticagrelor 10 mg/ml
# [14] = HPβCD 35% w/w, ticagrelor 14 mg/ml
# [15] = HPβCD 40% w/w, ticagrelor 5 mg/ml
# [16] = HPβCD 40% w/w, ticagrelor 10 mg/ml
# [17] = HPβCD 40% w/w, ticagrelor 14 mg/ml
smiles,measurement,setting,value
"CCCSc1nc(N[C@@H]2C[C@H]2c2ccc(F)c(F)c2)c2nnn([C@@H]3C[C@H](OCCO)[C@@H](O)[C@H]3O)c2n1 [Ticagrelor, (1S,2S,3R,5S)-3-{7-[(1R,2S)-2-(3,4-difluorophenyl)cyclopropylamino]5-(propylthio)-3H-(1,2,3)triazolo (4,5-D)pyrimidin-3-yl}-5-(2 hydroxyethoxy)cyclopentane-1,2-diol]",Appearance,"[1]; 5 mg/ml ticagrelor with 25, 30, 35 and 40 w/w % HPβCD",Clear
same,Appearance on standing,"[1]; 5 mg/ml, HPβCD 40%, 35% or 30% w/w in milliQ water, at least three days at room temperature and several days at 4° C.",remained clear
same,Appearance After 5 min of shaking,[1]; [3],− (translucent solution with precipitation)
same,Appearance After 30 min of shaking,[1]; [3],+/−
same,Appearance After 60 min of shaking,[1]; [3],+/−
same,Appearance After 3 h of shaking,[1]; [3],+/−
same,Appearance After overnight shaking,[1]; [3],− (translucent solution with precipitation)
same,Appearance After 5 min of shaking,[1]; [4],− (translucent solution with precipitation)
same,Appearance After 30 min of shaking,[1]; [4],− (translucent solution with precipitation)
same,Appearance After 60 min of shaking,[1]; [4],− (translucent solution with precipitation)
same,Appearance After 3 h of shaking,[1]; [4],− (translucent solution with precipitation)
same,Appearance After overnight shaking,[1]; [4],− (translucent solution with precipitation)
same,Appearance After 5 min of shaking,[1]; [5],− (translucent solution with precipitation)
same,Appearance After 30 min of shaking,[1]; [5],− (translucent solution with precipitation)
same,Appearance After 60 min of shaking,[1]; [5],− (translucent solution with precipitation)
same,Appearance After 3 h of shaking,[1]; [5],− (translucent solution with precipitation)
same,Appearance After overnight shaking,[1]; [5],− (translucent solution with precipitation)
same,Appearance After 5 min of shaking,[1]; [6],− (translucent solution with precipitation)
same,Appearance After 30 min of shaking,[1]; [6],+/−
same,Appearance After 60 min of shaking,[1]; [6],+/−
same,Appearance After 3 h of shaking,[1]; [6],+/−
same,Appearance After overnight shaking,"[1]; HPβCD 25% w/w, ticagrelor 5 mg/ml, after one hour of sonication","+* (clear, appeared completely dissolved)"
same,Appearance After 5 min of shaking,[1]; [7],− (translucent solution with precipitation)
same,Appearance After 30 min of shaking,[1]; [7],− (translucent solution with precipitation)
same,Appearance After 60 min of shaking,[1]; [7],− (translucent solution with precipitation)
same,Appearance After 3 h of shaking,[1]; [7],− (translucent solution with precipitation)
same,Appearance After overnight shaking,[1]; [7],− (translucent solution with precipitation)
same,Appearance After 5 min of shaking,[1]; [8],− (translucent solution with precipitation)
same,Appearance After 30 min of shaking,[1]; [8],− (translucent solution with precipitation)
same,Appearance After 60 min of shaking,[1]; [8],− (translucent solution with precipitation)
same,Appearance After 3 h of shaking,[1]; [8],− (translucent solution with precipitation)
same,Appearance After overnight shaking,[1]; [8],− (translucent solution with precipitation)
same,Appearance After 5 min of shaking,[1]; [9],− (translucent solution with precipitation)
same,Appearance After 30 min of shaking,[1]; [9],+/−
same,Appearance After 60 min of shaking,[1]; [9],+/−
same,Appearance After 3 h of shaking,[1]; [9],+/−
same,Appearance After overnight shaking,[1]; [9],"+ (clear, appeared completely dissolved)"
same,Appearance After 5 min of shaking,[1]; [10],− (translucent solution with precipitation)
same,Appearance After 30 min of shaking,[1]; [10],− (translucent solution with precipitation)
same,Appearance After 60 min of shaking,[1]; [10],− (translucent solution with precipitation)
same,Appearance After 3 h of shaking,[1]; [10],− (translucent solution with precipitation)
same,Appearance After overnight shaking,[1]; [10],− (translucent solution with precipitation)
same,Appearance After 5 min of shaking,[1]; [11],− (translucent solution with precipitation)
same,Appearance After 30 min of shaking,[1]; [11],− (translucent solution with precipitation)
same,Appearance After 60 min of shaking,[1]; [11],− (translucent solution with precipitation)
same,Appearance After 3 h of shaking,[1]; [11],− (translucent solution with precipitation)
same,Appearance After overnight shaking,[1]; [11],− (translucent solution with precipitation)
same,Appearance After 5 min of shaking,[1]; [12],+/−
same,Appearance After 30 min of shaking,[1]; [12],+/−
same,Appearance After 60 min of shaking,[1]; [12],+/−
same,Appearance After 3 h of shaking,[1]; [12],+/−
same,Appearance After overnight shaking,[1]; [12],"+ (clear, appeared completely dissolved)"
same,Appearance After 5 min of shaking,[1]; [13],− (translucent solution with precipitation)
same,Appearance After 30 min of shaking,[1]; [13],+/−
same,Appearance After 60 min of shaking,[1]; [13],+/−
same,Appearance After 3 h of shaking,[1]; [13],+/−
same,Appearance After overnight shaking,[1]; [13],"+ (clear, appeared completely dissolved)"
same,Appearance After 5 min of shaking,[1]; [14],− (translucent solution with precipitation)
same,Appearance After 30 min of shaking,[1]; [14],+/−
same,Appearance After 60 min of shaking,[1]; [14],+/−
same,Appearance After 3 h of shaking,[1]; [14],+/−
same,Appearance After overnight shaking,[1]; [14],+/−
same,Appearance After 5 min of shaking,[1]; [15],"+ (clear, appeared completely dissolved)"
same,Appearance After 30 min of shaking,[1]; [15],"+ (clear, appeared completely dissolved)"
same,Appearance After 60 min of shaking,[1]; [15],"+ (clear, appeared completely dissolved)"
same,Appearance After 3 h of shaking,[1]; [15],"+ (clear, appeared completely dissolved)"
same,Appearance After overnight shaking,[1]; [15],"+ (clear, appeared completely dissolved)"
same,Appearance After 5 min of shaking,[1]; [16],− (translucent solution with precipitation)
same,Appearance After 30 min of shaking,[1]; [16],+/−
same,Appearance After 60 min of shaking,[1]; [16],+/−
same,Appearance After 3 h of shaking,[1]; [16],+/−
same,Appearance After overnight shaking,[1]; [16],"+ (clear, appeared completely dissolved)"
same,Appearance After 5 min of shaking,[1]; [17],− (translucent solution with precipitation)
same,Appearance After 30 min of shaking,[1]; [17],+/−
same,Appearance After 60 min of shaking,[1]; [17],+/−
same,Appearance After 3 h of shaking,[1]; [17],+/−
same,"Appearance, undiluted",[2]; HPβCD 22.5% w/w,Turbid; clear after heating to 40 °C
same,"Appearance, undiluted",[2]; HPβCD 25.0% w/w,Turbid; clear after heating to 40 °C
same,"Appearance, undiluted",[2]; HPβCD 27.5% w/w,Turbid; clear after heating to 40 °C
same,"Appearance, undiluted",[2]; HPβCD 30.0% w/w,Clear solution
same,"Appearance, undiluted",[2]; HPβCD 32.5% w/w,Clear solution
same,Appearance in 5% dextrose,[2]; HPβCD 22.5% w/w,Clear solution
same,Appearance in NaCl 0.9%,[2]; HPβCD 22.5% w/w,Turbid
same,Appearance in 5% dextrose,[2]; HPβCD 25.0% w/w,Clear solution
same,Appearance in NaCl 0.9%,[2]; HPβCD 25.0% w/w,Turbid
same,Appearance in 5% dextrose,[2]; HPβCD 27.5% w/w,Clear solution
same,Appearance in NaCl 0.9%,[2]; HPβCD 27.5% w/w,Turbid
same,Appearance in 5% dextrose,[2]; HPβCD 30.0% w/w,Clear solution
same,Appearance in NaCl 0.9%,[2]; HPβCD 30.0% w/w,Turbid
same,Appearance in 5% dextrose,[2]; HPβCD 32.5% w/w,Clear solution
same,Appearance in NaCl 0.9%,[2]; HPβCD 32.5% w/w,Clear solution
same,Appearance with diluent,[2]; Normal saline and Ringer's lactate solution as diluent,turbid solutions
